Common to all, as to assay type: cell-based
One assay concerns HCC827 cells. Nature of the assay: Cell growth inhibition (CellTiter-Glo, 3 days) in HCC827. The settings on record: Homo sapiens, 72 h, 3 days after administration. The method in brief:
(§1)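 Growth inhibition was scored by CellTiter-Glo luminescence after 3-day compound exposure at various concentrations. Cells were plated at 5000/well the day before treatment: A431 in DMEM and HCC827 in RPMI, each with 10% FBS.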

For assay [1], the system named is HCC827-YVMA cells (human ERBB2 exon20 insertion mutant A775_G776ins YVMA). Description: Cell growth inhibition (CellTiter-Glo, 3 days) in HCC827-YVMA. The settings on record: 72 h, 3 days after administration. The method in brief: (§2)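 Growth inhibition used a CellTiter-Glo luminescence read-out after 3 days of compound exposure at various concentrations. Cells were plated the day before at 5000/well in RPMI plus 10% FBS. The lines are HCC827 transduced by lentivirus with codon-optimized EGFR ASV or ERBB2 YVMA exon 20 insertions.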

For a further assay, the system named is A431 cells. Nature of the assay: Cell growth inhibition (CellTiter-Glo, 3 days) in A431. Conditions: Homo sapiens, A-431, 72 h, 3 days after administration. The method in brief: as §1
The subject of assay [2] is HCC827-SVD cells (human EGFR exon 20 insertion mutant D770_N771 insSVD). Description: Cell growth inhibition (CellTiter-Glo, 3 days) in HCC827-SVD. Conditions: 72 h, 3 days after administration. The method, boiled down: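 HCC827 cells carrying lentiviral codon-optimized EGFR D770_N771 insSVD, with endogenous EGFR knocked out by CRISPR (single clone), seeded at 5000 cells/well in RPMI with 10% FBS. Viability read by CellTiter-Glo luminescence.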

In assay [3] the test system is HCC827-ASV cells (human EGFR exon 20 insertion mutant A769_D770insASV). Description: Cell growth inhibition (CellTiter-Glo, 3 days) in HCC827-ASV. Conditions: 72 h, 3 days after administration. The method, boiled down:
as §2

The text below walks through data of patent US20240398805A1, “QUINAZOLINE DERIVED COMPOUNDS AS EGFR INHIBITORS AND THEIR USES THEREOF” (ACCUTAR BIOTECHNOLOGY INC., priority 2021, published 2024).

As to `C=CC(=O)N1CCC(Nc2cc3c(Nc4ccc(Oc5ccnc(C(=O)OC)c5)cc4F)ncnc3cc2OC)CC1` [Example 211, methyl 4-(4-((6-((1-acryloylpiperidin-4-yl)amino)-7-methoxyquinazolin-4-yl)amino)-3-fluorophenoxy) picolinate], the GI50 was ≥ 1000 nM in the assay on HCC827 cells; 600 to 1000 nM in assay [1]; ≥ 1000 nM in the assay with A431 cells; ≥ 1000 nM in assay [2]; ≥ 1000 nM in assay [3].
Regarding `C=CC(=O)N1CCC(Nc2cc3c(Nc4ccc(Oc5ccnc(C(=O)O)c5)cc4F)ncnc3cc2OC)CC1` [Example 212, 4-(4-((6-((1-acryloylpiperidin-4-yl)amino)-7-methoxyquinazolin-4-yl)amino)-3-fluorophenoxy) picolinic acid], the GI50 (with HCC827 cells; in assay [1]; in the assay on A431 cells; in assay [2]; in assay [3]) was ≥ 1000 nM in each case.
Turning to `C=CC(=O)N1CCC(Nc2cc3c(Nc4ccc(Oc5ccnc(C6=CCN(C)CC6)c5)cc4F)ncnc3cc2OC)CC1` [Example 213, 1-(4-((4-((2-fluoro-4-((1′-methyl-1′,2′,3′,6′-tetrahydro-[2,4′-bipyridin]-4-yl)oxy)phenyl)amino)-7-methoxyquinazolin-6-yl)amino)piperidin-1-yl)prop-2-en-1-one], the GI50 with HCC827 cells is 300 to 600 nM; in assay [1], 300 to 600 nM; in the assay with A431 cells it was ≥ 1000 nM; in assay [2], 300 to 600 nM; in assay [3], 100 to 300 nM.
With `C=CC(=O)N1CCC(Nc2cc3c(Nc4ccc(Oc5ccnc(N6CCC[C@@H](O)C6)c5)cc4F)ncnc3cc2OC)CC1` [Example 214, (R)-1-(4-((4-((2-fluoro-4-((2-(3-hydroxypiperidin-1-yl)pyridin-4-yl)oxy)phenyl)amino)-7-methoxyquinazolin-6-yl)amino)piperidin-1-yl)prop-2-en-1-one], the GI50 with HCC827 cells was 300 to 600 nM; in assay [1] it was < 30 nM; in the assay on A431 cells, ≥ 1000 nM; in assay [2], 30 to 60 nM; in assay [3], < 30 nM.
On to `C=CC(=O)N1CCC(Nc2cc3c(Nc4ccc(Oc5ccnc(N6CCC[C@@H](N)C6)c5)cc4F)ncnc3cc2OC)CC1` [Example 217, (R)-1-(4-((4-((4-((2-(3-aminopiperidin-1-yl)pyridin-4-yl)oxy)-2-fluorophenyl)amino)-7-methoxyquinazolin-6-yl)amino)piperidin-1-yl)prop-2-en-1-one], for which the GI50 was ≥ 1000 nM in the assay with HCC827 cells; 600 to 1000 nM in assay [1]; ≥ 1000 nM in the assay with A431 cells; 300 to 600 nM in assay [2]; 600 to 1000 nM in assay [3].
Consider `C=CC(=O)N1CCC(Nc2cc3c(Nc4ccc(Oc5ccnc(N6CCC(F)(F)CC6)c5)cc4F)ncnc3cc2OC)CC1` [Example 218, 1-(4-((4-((4-((2-(4,4-difluoropiperidin-1-yl)pyridin-4-yl)oxy)-2-fluorophenyl)amino)-7-methoxyquinazolin-6-yl)amino)piperidin-1-yl)prop-2-en-1-one], for which the GI50 with HCC827 cells is 100 to 300 nM; in assay [1], 30 to 60 nM; with A431 cells it was ≥ 1000 nM; in assay [2], 30 to 60 nM; in assay [3] it was 30 to 60 nM.
For `C=CC(=O)N1CCC(Nc2cc3c(Nc4ccc(Oc5ccnc(N6CCCC(F)(F)C6)c5)cc4F)ncnc3cc2OC)CC1` [Example 219, 1-(4-((4-((4-((2-(3,3-difluoropiperidin-1-yl)pyridin-4-yl)oxy)-2-fluorophenyl)amino)-7-methoxyquinazolin-6-yl)amino)piperidin-1-yl)prop-2-en-1-one], the GI50 was 100 to 300 nM in the assay on HCC827 cells; < 30 nM in assay [1]; 300 to 600 nM in the assay on A431 cells; < 30 nM in assay [2]; < 30 nM in assay [3].
Take `C=CC(=O)N1CCC(Nc2cc3c(Nc4ccc(Oc5ccnc(N6CCCC(C)(O)C6)c5)cc4F)ncnc3cc2OC)CC1` (centres unmarked) [Example 220, 1-(4-((4-((2-fluoro-4-((2-(3-hydroxy-3-methylpiperidin-1-yl)pyridin-4-yl)oxy)phenyl)amino)-7-methoxyquinazolin-6-yl)amino)piperidin-1-yl)prop-2-en-1-one]: the GI50 is 100 to 300 nM in the assay on HCC827 cells; < 30 nM in assay [1]; 600 to 1000 nM in the assay with A431 cells; < 30 nM in assay [2]; < 30 nM in assay [3].
Consider `C=CC(=O)N1CCC(Nc2cc3c(Nc4ccc(Oc5ccnc(N6CCCC(C#N)C6)c5)cc4F)ncnc3cc2OC)CC1` (centres unmarked) [Example 221, 1-(4-(4-((6-((1-acryloylpiperidin-4-yl)amino)-7-methoxyquinazolin-4-yl)amino)-3-fluorophenoxy)pyridin-2-yl)piperidine-3-carbonitrile], for which the GI50 in the assay on HCC827 cells is 100 to 300 nM; in assay [1], < 30 nM; in the assay with A431 cells, 100 to 300 nM; in assay [2], < 30 nM; in assay [3] it was < 30 nM.
For the molecule `C=CC(=O)N1CCC(Nc2cc3c(Nc4ccc(Oc5ccnc(N6CCC[C@H](C)C6)c5)cc4F)ncnc3cc2OC)CC1` [Example 222, (S)-1-(4-((4-((2-fluoro-4-((2-(3-methylpiperidin-1-yl)pyridin-4-yl)oxy)phenyl)amino)-7-methoxyquinazolin-6-yl)amino)piperidin-1-yl)prop-2-en-1-one], the 50% growth inhibitory concentration (GI50) is 60 to 100 nM in the assay on HCC827 cells; < 30 nM in assay [1]; 600 to 1000 nM in the assay on A431 cells; < 30 nM in assay [2]; < 30 nM in assay [3].
Take `C=CC(=O)N1CCC(Nc2cc3c(Nc4ccc(Oc5ccnc(N6CCN(C)C(=O)C6)c5)cc4F)ncnc3cc2OC)CC1` [Example 223, 4-(4-(4-((6-((1-acryloylpiperidin-4-yl)amino)-7-methoxyquinazolin-4-yl)amino)-3-fluorophenoxy)pyridin-2-yl)-1-methylpiperazin-2-one]: the GI50 in the assay on HCC827 cells was in the range of 300 to 600 nM; in assay [1] it was 100 to 300 nM; in the assay on A431 cells it was 600 to 1000 nM; in assay [2], 100 to 300 nM; in assay [3], 100 to 300 nM.
Regarding `C=CC(=O)N1CCC(Nc2cc3c(Nc4ccc(Oc5ccnc(N6CCN[C@H](C)C6)c5)cc4F)ncnc3cc2OC)CC1` [Example 224, (R)-1-(4-((4-((2-fluoro-4-((2-(3-methylpiperazin-1-yl)pyridin-4-yl)oxy)phenyl)amino)-7-methoxyquinazolin-6-yl)amino)piperidin-1-yl)prop-2-en-1-one], the GI50 with HCC827 cells is ≥ 1000 nM; in assay [1] it was 600 to 1000 nM; in the assay with A431 cells, ≥ 1000 nM; in assay [2], 300 to 600 nM; in assay [3], 600 to 1000 nM.
On to `C=CC(=O)N1CCC(Nc2cc3c(Nc4ccc(Oc5ccnc(N6CCN[C@@H](C)C6)c5)cc4F)ncnc3cc2OC)CC1` [Example 225, (S)-1-(4-((4-((2-fluoro-4-((2-(3-methylpiperazin-1-yl)pyridin-4-yl)oxy)phenyl)amino)-7-methoxyquinazolin-6-yl)amino)piperidin-1-yl)prop-2-en-1-one], for which the GI50 in the assay on HCC827 cells is ≥ 1000 nM; in assay [1], 300 to 600 nM; with A431 cells, ≥ 1000 nM; in assay [2], 300 to 600 nM; in assay [3], 300 to 600 nM.
